Measurements taken from patent US10822315B2, “5-benzylidene-4-oxazolidinones” (NORTH CAROLINA STATE UNIVERSITY, priority 2016, dated 2020).
pIC50: −log10 of the molar value. In brackets after ≈: the same amount, converted by molar mass. Read-outs that look alike come from different tables or passages of the source.

Experiments:
[1] = system: MRSA ATCC BAA-44; experiment: Biofilm inhibition assay (crystal violet); assay type: cell-based, Staphylococcus aureus; details: for inhibition at 5 µM / pIC50 / inhibition at 40 µM: Staphylococcus aureus; for pIC50: MRSA ATCC BAA-44; for fold reduction in biofilm inhibition activity: 7 versus 4, 8 versus 1; for inhibition at 40 µM: Table 2
Experimental: (§1) General Information. Methicillin-resistant Staphylococcus aureus (MRSA) strains were obtained from the Laboratory of Professor Christian Melander (NCSU) ATCC (33591, BAA 44, BAA 1685, BAA 1770, BAA 43 300) and colonies were grown on solid media as instructed. Mueller-Hinton broth (MHB, 211443-BD), tryptic soy broth (TSB, Remel: R455052) and D-glucose (CAS: 492-62-6) were purchased from Fisher Scientific. Tryptic soy agar (TSA, cat. #22091) and Linezolid (cat. # P70014) were purchased from Sigma-Aldrich. Bacteria for biofilm inhibition and dispersion assays were cultured overnight in TSBG (tryptic soy broth with 0.5% glucose supplement). All assays were run in duplicate and repeated at least two separate times for MIC assays and at least four separate times for biofilm inhibition and dispersion assays. All compounds were dissolved molecular biology grade DMSO as 100 mM stock solutions and further diluted to 10 and 1 mM stock solutions as needed. Optical densities were measured using a Thermo Scientific Genesys 20 spectrophotometer. Data for biofilm inhibition and dispersion assays was collected using a BioTek ELx808 Microplate Reader. All graphs were generated and analyzed using GraphPad Prism 7.
Biofilm Inhibition Assay. Studies were performed using the standard method described in S. A. Rogers and C. Melander, Angew Chem Int Ed, 2008, 47, 5229-5231. Briefly, biofilm inhibition assays were performed by taking an overnight culture of bacterial strain and subculturing it at an OD600 of 0.01 into the necessary growth liquid medium (LB for A. baumannii, LBNS for P. aeruginosa, Stainer-Scholte medium that was supplemented with 10 μL/mL of 100× nutrient complex for B. bronchiseptica and TSB w/0.3% glucose for S. aureus) for the strain. The compound being tested was then added at a predetermined concentration and then aliquoted (100 μL) into the wells of a 96-well PVC microtiter plate (wells not used for samples are filled with 100 μL of de-ionized water). Plates were then wrapped in GLAD Press n' Seal and incubated under stationary conditions at 37° C. After 24 hours, the media was discarded from the wells and the plates were washed thoroughly with tap water. Plates were then stained with 100 μL of 0.1% solution of crystal violet (CV) and then incubated at an ambient temperature for 30 minutes. Sample plates were then washed with tap water again and the remaining stain was solubilized with 200 μL of 95% ethanol. Biofilm inhibition was quantitated by measuring the OD540 for each well by transferring 125 μL of the solubilized CV stain into a polystyrene microtiter dish for analysis. Biofilm inhibition was quantified by measuring the OD540 of each well and calculated as a percentage of the control (no compound); a negative control lane wherein no biofilm was formed served as a background and was subtracted out.
(§2) Percent inhibition was then plotted against concentration in Prism 7. Each of the four experiments were plotted separately and analyzed by a normalized nonlinear regression. The IC50 values reported represent an arithmetic mean of the four IC50 values. Biofilm data represent four separate experiments, with each experiment performed in duplicate (average of 8 data points for each concentration tested, unless otherwise noted)

[2] = system: MRSA ATCC 33591; experiment: Broth microdilution MIC determination; assay type: cell-based; details: Staphylococcus aureus, Table 1, read-out: Antimicrobial Activity MIC
Experimental: as §1
Broth microdilution protocol for minimum inhibition concentration (MIC) determination. Studies were performed using the standard method prescribed by the Clinical and Laboratory Standards Institute (CLSI) M07-A8, Vol. 29 (2), which is hereby incorporated herein by reference. Briefly, fresh Mueller-Hinton broth (MHB) ˜3 ml, was inoculated (5×10^5 CFU mL^−1) with MRSA (ATCC 33591) methicillin-resistant Staphylococcus aureus. The resulting bacterial suspension was aliquoted (1 mL) into culture tubes and test compound (10 mM DMSO stock solution) was added to reach the final concentration of the interest. Bacteria not treated with the antimicrobial compound served as the control. Rows 2-12 of a 96-well microtiter plate were filled with remaining bacterial subcultures. The samples containing test compound were aliquoted (200 μL) into the first row wells of the microtiter plate (2 wells per compound). Row 1 wells were mixed 6-8 times and 100 μL was transferred down to row 2. Row 2 wells were mixed 6-8 times, followed by a 100 μL transfer from row 2 down to row 3. The rest of the rows of the plate were serially diluted in similar fashion. The plate was covered with sealing tape for 96-well plates (ThermoFisher) and incubated under stationary conditions at 37° C. A duplicate of the plate was prepared.

[3] = system: MRSA ATCC BAA-44; experiment: Broth microdilution MIC determination; assay type: cell-based, Staphylococcus aureus; details: for MIC: Staphylococcus aureus
[4] = system: MRSA ATCC BAA-44; experiment: Biofilm dispersion assay (crystal violet, pre-formed biofilm); assay type: cell-based, Staphylococcus aureus; details: Staphylococcus aureus; for % dispersion of pre-formed biofilm at 5 µM: MRSA ATCC BAA 44; for pIC50: MRSA ATCC BAA-44
Experimental: as §1
Biofilm Dispersion Assay. Studies were performed using the standard method described in J. J. Richards, T. E. Ballard and C. Melander, Org Biomol Chem, 2008, 6, 1356-1363. Briefly, dispersion assays were performed by taking an overnight culture of bacterial strain and subculturing it at an OD600 of 0.01 into the necessary growth liquid medium. The resulting bacterial suspension was aliquoted (100 μL) into the wells of a 96-well PVC microtiter plate. Plates were then wrapped in GLAD Press n' Seal followed by an incubation under stationary conditions at an ambient temperature. After 24 hours, the media was discarded from the wells and the plates were washed thoroughly with tap water. Predetermined concentrations of the test compound were then made in the same medium used to initially grow the biofilms and then aliquoted (100 μL) into the wells of the 96-well PVC microtiter plate with the established biofilms. Plates were then wrapped in GLAD Press n'Seal and incubated under stationary conditions at 37° C. After 24 hours, the media was discarded from the wells and the plates were washed thoroughly with tap water. Plates were then stained with 100 μL of 0.1% solution of crystal violet (CV) and then incubated at room temperature for 30 minutes. Plates were then washed with tap water again and the remaining stain was solubilized with 200 μL of 95% ethanol. Biofilm dispersion was quantitated by measuring the OD540 for each well by transferring 125 μL of the solubilized CV stain into a polystyrene microtiter dish for analysis. Biofilm inhibition was quantified by measuring the OD540 of each well and calculated as a percentage of the control (no compound), a negative control lane wherein no biofilm was formed served as a background and was subtracted out.
as §2, with “dispersion” for “inhibition”

[5] = system: MRSA ATCC BAA-44; experiment: as above; assay type: cell-based; details: Staphylococcus aureus, Table 2
[6] = system: red blood cells; experiment: Lysis of red blood cells; assay type: cell-based; details: 100 μM
[7] = MRSA ATCC BAA 44, Table 2, read-out: MIC
[8] = MRSA ATCC BAA-44, Table 1, read-out: Antimicrobial Activity MIC

| Compound | inhibition at 5 µM ([1]; 5 μM, MRSA ATCC BAA 44) [%] | pIC50 [1] | MIC [2] [µg/mL] | MIC [3, 7] [µg/mL] | MIC [3, 8] [µg/mL] | % dispersion of pre-formed biofilm at 5 µM [4] [%] | pIC50 [4] | fold reduction in biofilm inhibition activity [1] [fold] | inhibition at 40 µM ([1]; MRSA ATCC BAA 44) [%] | % Biofilm Inhibition (5 μM) ([1]; 5 μM, MRSA ATCC BAA 44) [%] | inhibition at 40 µM [5] [%] | fold reduction in antimicrobial activity ([3]; 7 compared with 4) [fold] | biofilm activity (in words) ([1]; even at 40 μM) | antimicrobial activity (in words) ([3]; MRSA ATCC BAA-44) | red blood cells lysed [6] [%] | dose dependence of biofilm inhibition (in words) ([1]; relative to MIC) |
| --- | --- | --- | --- | --- | --- | --- | --- | --- | --- | --- | --- | --- | --- | --- | --- | --- |
| CC(Cl)(Cl)C1NC(=O)/C(=C/c2ccc(C(F)(F)F)cc2)O1 (stereo not drawn) [Compound 4, (Z)-2-(1,1-dichloroethyl)-5-(4-(trifluoromethyl)benzylidene)oxazolidin-4-one] | 55 | 5.44 | 32 (≈ 94.1 µM) | 32 (≈ 94.1 µM) | 32 (≈ 94.1 µM) | 50 | 5.30 | – | – | – | – | – | – | – | – | – |
| C#CCC(Cl)(Cl)C1NC(=O)/C(=C/c2ccc(C(F)(F)F)cc2)O1 (stereo not drawn) [Compound 5, (Z)-2-(1,1-dichlorobut-3-yn-1-yl)-5-(4-(trifluoromethyl)benzylidene)oxazolidin-4-one] | 64 | 5.72 | 16 (≈ 43.9 µM) | 16 (≈ 43.9 µM) | 16 (≈ 43.9 µM) | 63 | 5.22 | – | – | – | – | – | – | – | – | – |
| CCCCCC1NC(=O)/C(=C/c2ccc(C(F)(F)F)cc2)O1 (stereo not drawn) [Compound 8, (Z)-2-pentyl-5-(4-(trifluoromethyl)benzylidene)oxazolidin-4-one] | 17 | 5.14 | 16 (≈ 51.1 µM) | 64 (≈ 204 µM) | 16 (≈ 51.1 µM) | – | – | 5 | 53 | – | – | – | – | – | – | – |
| CCCCC(Cl)(Cl)C1NC(=O)/C(=C/c2ccc(OC)cc2)O1 (stereo not drawn) [Compound 11, (Z)-2-(1,1-di-Chloropentyl)-5-(4-methoxybenzylidene)oxazolidin-4-one] | < 50 | – | – | > 128 | – | 49 | – | – | 52 | 39 | 58 | – | – | – | – | – |
| CCCCC(Cl)(Cl)C1NC(=O)/C(=C/c2ccccc2)O1 (stereo not drawn) [Compound 6, (Z)-5-benzylidene-2-(1,1-dichloropentyl)oxazolidin-4-one] | 51 | 5.49 | 64 (≈ 204 µM) | 64 (≈ 204 µM) | 64 (≈ 204 µM) | 14 | 5.28 | – | – | – | 26 | – | – | – | – | – |
| CC(C)(C)C1NC(=O)/C(=C/c2ccc(C(F)(F)F)cc2)O1 (stereo not drawn) [Compound 7, (Z)-2-(tert-butyl)-5-(4-(trifluoromethyl)benzylidene)oxazolidin-4-one] | 31 | 5.14 | 128 (≈ 428 µM) | 128 (≈ 428 µM) | 128 (≈ 428 µM) | 5.7 | 5.04 | 3 | 51 | – | 31 | 4 | – | – | – | – |
| CCCCCCNC(=O)C(=O)Cc1ccc(C(F)(F)F)cc1 [Compound 9, N-hexyl-2-oxo-3-(4-(trifluoromethyl)phenyl)propanamide] | 24 | < 4.70 | > 128 | > 128 | > 128 | -24 | < 4.70 | – | 41 | – | -6.5 | – | only modest biofilm activity | no antimicrobial activity | – | – |
| CCCCCCCCC(Cl)(Cl)C1NC(=O)/C(=C/c2ccc(C(F)(F)F)cc2)O1 (stereo not drawn) [Compound 3, (Z)-2-(1,1-dichlorononyl)-5-(4-(trifluoromethyl)benzylidene)oxazolidin-4-one] | 68 | 5.77 | > 128 | > 128 | > 128 | 19 | 5.18 | – | 75 | – | 19 | – | – | completely abolished | 7 | dose-dependent biofilm inhibition at concentrations well below their MIC |
